Data from patent publication US20230103675A1, “ALLERGEN PROTECTION FOR THE SKIN” (BEIERSDORF AG, priority 2020, published 2023).
One block for each substance: values may come before it. Where no end group is shown, it is not given here.

Columns and labels:
Phenion skin models = assay: H&E staining of cryosections of Phenion skin models; type: cell-based; details: FIG. 5 B; 0.5 mM peptide, no allergen
Protocol: (§1) The investigations were carried out using Phenion FTS full skin models (Phenion, Henkel). These were maintained for 3 days at 37° C. and 7% CO2 in deep-well plates having a […] pore size in the cell culture inserts. The skin models were maintained in 1.5 ml of air-liquid interface medium without phenol red. The medium was changed daily. The test substances were dissolved in ethanol and incubated at room temperature for 24 h. After culturing for 24 h, 25 μl of the substance solution was dripped onto a sterile filter paper that had previously been laid on the skin model. The barrier peptide (0.5 mM AcRFAACAA) had previously been applied to the model as a solution in 100 mM phosphate buffer (pH 7.5). Alternatively, the barrier peptide was applied in a formulation having a content of 0.25% by weight.
(§2) After culturing for a further 24 h, the models were harvested and one half embedded in OCT mounting medium (VWR Q-Path Chemicals), the other half snap-frozen in liquid nitrogen. The supernatant of each model was collected and stored at −20° C.
In further investigations, frozen sections were thawed and incubated for 10 min in 3.7% paraformaldehyde at RT. After three PBS wash steps and one minute in distilled water, they are stained for 3 min in hematoxylin solution. […]

[1] = system: Phenion FTS full skin models; assay: Cytokine release (IL8, IL6) in supernatants of Phenion FTS full skin models, Bio-Plex multiplex immunoassay; type: cell-based, human; details: FIGS. 2 to 4 left bar; 0.5 mM peptide without allergen
Protocol: as §1, §2
The supernatants were then analyzed (FIGS. 2, 3 and 4).
The supernatants of the Phenion FTS models were analyzed using the Bio-Plex Pro Human Cytokine Screening Panel (Bio-Rad) according to the manufacturer's protocol. […] The cytokine concentrations are calculated on the basis of the standard curves from the Bioplex system. […]

[2] = Barrier effect against metals
[3] = Direct peptide reaction assay (DPRA) with urushiols, Ellman's reagent, 24 h; details: FIG. 9; urushiol structures I-V, 24 h reaction, n=3
Protocol: The reaction courses shown in FIGS. 8 and 9 were determined colorimetrically through the reaction of the peptide with Ellmann's reagent in a photometer. In this reaction, DTNB ((5,5′-dithiobis-2-nitrobenzoic acid, Ellmann's reagent) is cleaved and attached to the SH residue of the amino acid cysteine of the peptides of the invention (Ac-RFAACAA, RFAACAA).
The SH radical is at the same time the reactive binding site of the peptide with the allergens. The color reaction with DTNB (color change from colorless to yellow) competes with the allergen reaction. This means that the better the allergen reacts with the peptide, the less peptide remains available for the reaction with the detection reagent, i.e. the less the resulting yellow coloration.
The control is the peptide in the buffer system without allergen, i.e. instead of allergen only its solvent (ethanol) is added.
Urushiols of the structure below were used.
The investigated urushiols differ in the saturation in the side chain R.
Urushiols where R═C15 singly (C15:1), doubly (C15:2) or triply (C15:3) unsaturated were investigated.

- skin model morphology (H&E) with peptide on its own (Phenion skin models): unchanged
- skin model IL8/IL6 release with peptide on its own [1]: unchanged
Substance: Ac-RFAACAA [Ac-RFAACAA, acetylarginine-phenylalanine-alanine-alanine-cysteine-alanine-alanine]

Substance: His His His His His His (HHHHHH; printed: His His His His His His)
- barrier effect against metals and nickel in particular [2]: achieved a barrier effect

Substance: RFAACAA [Arg Phe Ala Ala Cys Ala Ala]
- reactivity and thus protective activity against urushiols [3]: very high reactivity
